Read-outs that look alike come from different tables or passages of the source.
How the values were obtained:
Dermatophagoides farinae = system: Dermatophagoides farinae
Protocol: (§1) American house dust mite (Dermatophagoides farinae) and European house dust mite (Dermatophagoide pteronyssinus) were maintained at 75±5% RH (relative humidity) at 25±1° C., and were provided a feed mixture of fish meal and multi-vitamins in a ratio of 1 to 1 on a 12.5×10.5×5 cm container.
(§2) The starting concentration is important for the primary screening of bioactive compounds from plant extracts and oils. […] 1 mg of the methanol extracts or oils were suspended with 40 μl of methanol and were transferred to a colorless microtube (2 ml). The microtube was vertically shaken several times to disperse the contents to the wall and cap of the microtube and it was placed in a freeze dryer for 1 hour in order to volatilize the solvent. Twenty-five mites were placed on the prepared microtube, and all treatment groups were transferred to an incubator kept at […]. Active mites only were selected with a fine brush under a microscope. Mortalities were determined with a microscope at 24 hours and 48 hours after treatment. […] All tests were replicated four or more times. The percentage mortality was determined and transformed to arcsine square-root values for analysis of variance (ANOVA). Treatment means were compared and separated by Scheffe's test at the P=0.05 (SAS Institute, 1996). Means (±standard error) of untransformed data are reported. Controls received 40 μl of methanol.

[1] = system: Dermatophagoides pteronyssinus
Protocol: as §1, §2

[2] = system: mites inhabiting carpets and chairs; conditions: homes, cited from earlier work
house dust mites = format: in vivo; conditions: for acaricidal activity / mortality against two species of house dust mites: 1 mg/tube, 48 hours after treatment; for acaricidal activity: at 0.4 mg and less
Protocol: All tests were replicated four or more times. […] Means (±standard error) of untransformed data are reported. Controls received 40 μl of methanol.

[3] = synergic effect test, 0.25 mg/tube of each compound, 24 hr
[4] = 0.5 mg/tube, 48 hr, listed as Allyl isothiocyanate
[5] = 0.5 mg/tube, 48 hr, listed as Butyl isothiocyanate

SMILES | Mortality (Means ± standard error, %) (Dermatophagoides farinae; 0.125 mg/tube, 24 hr) | Mortality (Means ± standard error, %) (Dermatophagoides farinae; 0.125 mg/tube, 48 hr) | Mortality (Means ± standard error, %) (Dermatophagoides farinae; 0.2 mg/tube, 24 hr) | Mortality (Means ± standard error, %) (Dermatophagoides farinae; 0.2 mg/tube, 48 hr) | Mortality (Means ± standard error, %) (Dermatophagoides farinae; 0.25 mg/tube, 24 hr) | Mortality (Means ± standard error, %) (Dermatophagoides farinae; 0.25 mg/tube, 48 hr) | Mortality (Means ± standard error, %) (Dermatophagoides farinae; 0.3 mg/tube, 24 hr) | Mortality (Means ± standard error, %) (Dermatophagoides farinae; 0.3 mg/tube, 48 hr) | Mortality (Means ± standard error, %) (Dermatophagoides farinae; 0.4 mg/tube, 24 hr) [b %] | Mortality (Means ± standard error, %) (Dermatophagoides farinae; 0.4 mg/tube, 48 hr) | Mortality (Means ± standard error, %) (Dermatophagoides farinae; 0.5 mg/tube, 24 hr) | Mortality (Means ± standard error, %) (Dermatophagoides farinae; 0.5 mg/tube, 48 hr) | Mortality (Means ± standard error, %) (Dermatophagoides farinae; 1 mg/tube, 24 hr) | Mortality (Means ± standard error, %) (Dermatophagoides farinae; 1 mg/tube, 48 hr) [a %] | Mortality (Means ± standard error, %) ([1]; 0.125 mg/tube, 24 hr) | Mortality (Means ± standard error, %) ([1]; 0.125 mg/tube, 48 hr) | Mortality (Means ± standard error, %) ([1]; 0.2 mg/tube, 24 hr) | Mortality (Means ± standard error, %) ([1]; 0.2 mg/tube, 48 hr) | Mortality (Means ± standard error, %) ([1]; 0.25 mg/tube, 24 hr) | Mortality (Means ± standard error, %) ([1]; 0.25 mg/tube, 48 hr) | other results
O=C/C=C/c1ccccc1 [trans-cinnamaldehyde] | 18.0 ± 2.6d % | 23.0 ± 3.4c % | 19.0 ± 2.5cd % | 29.0 ± 1.9bc % | 21.0 ± 2.5cd % | 30.0 ± 8.7bc % | 32.0 ± 1.6bc % | 39.0 ± 2.5bc % | 41.0 ± 2.5 | 45.0 ± 2.5b % | 94.0% | 96.0 ± 2.3a % | 99.0 a^c % | 100 | 6.0 ± 3.5d % | 9.0 ± 2.5c % | 7.0 ± 1.0cd % | 9.0 ± 1.0c % | 9.0 ± 1.9cd % | 10.0 ± 2.6bc % | Mortality (Means ± standard error, %) ([1]; 0.3 mg/tube, 24 hr): 25.0 ± 2.5bc %; Mortality (Means ± standard error, %) ([1]; 0.3 mg/tube, 48 hr): 32.0 ± 2.8b %; Mortality (Means ± standard error, %) ([1]; 0.4 mg/tube, 24 hr): 33.0 ± 2.5b %; Mortality (Means ± standard error, %) ([1]; 0.4 mg/tube, 48 hr): 42.0 ± 4.2b %; Mortality (Means ± standard error, %) ([1]; 0.5 mg/tube, 24 hr): 84.0%; Mortality (Means ± standard error, %) ([1]; 0.5 mg/tube, 48 hr): 94.0 ± 2.6a %; Mortality (Means ± standard error, %) ([1]; 1 mg/tube, 24 hr): 100a %; Mortality (Means ± standard error, %) ([1]; 1 mg/tube, 48 hr): 100a %
CCN(CC)c1nc(C)cc(OP(=S)(OC)OC)n1 [pirimiphos-methyl] |  |  |  |  |  |  |  |  |  |  |  |  |  |  |  |  |  |  |  |  | control of mites inhabiting carpets ([2]; carpets): 60%; control of mites inhabiting chairs ([2]; chairs): 50%
CCCCOC(=O)c1ccccc1C(=O)OCCCC [dibutyl phtalate, reference compound] |  |  |  |  |  |  |  |  |  |  |  |  |  |  |  |  |  |  |  |  | Mortality (Means ± standard error, %) (Dermatophagoides farinae; [3]): 92.0%; Mortality (Means ± standard error, %) [1, 3]: 95.2%
OC/C=C/c1ccccc1 [cinnamyl alcohol] | 1.0 ± 1.0d % | 2.0 ± 1.2c % | 7.0 ± 1.0c % | 7.0 ± 1.0c % | 10.0 ± 3.8c % | 10.0 ± 4.1c % | 39.0 ± 2.6b % | 45.0 ± 1.9b % | 58.0 ± 2.6 | 65.0 ± 1.9ab % | 90.0% | 97.0 ± 1.9a % | 99.0 ± 1.0a % | 100 | 1.0 ± 1.0e % | 3.0 ± 1.9d % | 6.0 ± 1.2d % | 10.0 ± 1.2c % | 15.0 ± 1.9d % | 14.0 ± 2.6c % | Mortality (Means ± standard error, %) ([1]; 0.3 mg/tube, 24 hr): 35.0 ± 2.5c %; Mortality (Means ± standard error, %) ([1]; 0.3 mg/tube, 48 hr): 40.0 ± 3.7b %; Mortality (Means ± standard error, %) ([1]; 0.4 mg/tube, 24 hr): 56.0 ± 2.8b %; Mortality (Means ± standard error, %) ([1]; 0.4 mg/tube, 48 hr): 62.0 ± 2.6b %; Mortality (Means ± standard error, %) ([1]; 0.5 mg/tube, 24 hr): 90.0%; Mortality (Means ± standard error, %) ([1]; 0.5 mg/tube, 48 hr): 97.0 ± 1.9a %; Mortality (Means ± standard error, %) ([1]; 1 mg/tube, 24 hr): 99.0 ± 1.0a %; Mortality (Means ± standard error, %) ([1]; 1 mg/tube, 48 hr): 100a %
C=CCN=C=S [allyl isothiocyanate] | 1.0 ± 1.0 e % | 0 e % | 6.0 ± 1.2 d % | 9.0% | 7.0 ± 3.0 d % | 8.0% | 22.0 ± 2.6 c % | 27.0% | 44.0 ± 2.8 | 46.0% | 90.0 ± 2.6 a % | 97.0% | 100 a % | 100 | 6.0 ± 3.5 d % | 9.0 ± 2.5 c % | 7.0 ± 1.0 cd % | 9.0 ± 1.0 c % | 9.0 ± 1.9 cd % | 10.0 ± 2.6 bc % | Mortality (Means ± standard error, %) (Dermatophagoides farinae; [4]): 94%; Mortality (Means ± standard error, %) ([1]; 0.3 mg/tube, 24 hr): 25.0 ± 2.5 bc %; Mortality (Means ± standard error, %) ([1]; 0.3 mg/tube, 48 hr): 32.0 ± 2.8 b %; Mortality (Means ± standard error, %) ([1]; 0.4 mg/tube, 24 hr): 33.0 ± 2.5 b %; Mortality (Means ± standard error, %) ([1]; 0.4 mg/tube, 48 hr): 42.0 ± 4.2 b %; Mortality (Means ± standard error, %) ([1]; 0.5 mg/tube, 24 hr): 92.0 ± 2.6 a %; Mortality (Means ± standard error, %) ([1]; 0.5 mg/tube, 48 hr): 94.0 ± 2.6 a %; Mortality (Means ± standard error, %) [1, 4]: 96%; Mortality (Means ± standard error, %) ([1]; 1 mg/tube, 24 hr): 100 a %; Mortality (Means ± standard error, %) ([1]; 1 mg/tube, 48 hr): 100 a %; acaricidal activity / mortality against two species of house dust mites (house dust mites): 100%; acaricidal activity (house dust mites): no significant acaricidal activity
CCCCN=C=S [butyl isothiocyanate] | 1.0 ± 1.0 d % | 2.0% | 1.0 ± 1.0 e % | 3.0% | 20.0 ± 1.6 c % | 27.0% | 26.0 ± 2.0 c % | 34.0% | 44.0 ± 2.8 | 48.0% | 84.0 ± 5.2 a % | 94.0% | 99.0 ± 1.0 a % | 100 | 1.0 ± 1.0 d % | 2.0 ± 1.2 d % | 7.0 ± 1.0 cd % | 7.0 ± 1.0 cd % | 21.0 ± 2.5 cd % | 30.0 ± 8.7 bc % | Mortality (Means ± standard error, %) (Dermatophagoides farinae; [5]): 97%; Mortality (Means ± standard error, %) ([1]; 0.3 mg/tube, 24 hr): 32.0 ± 1.6 bc %; Mortality (Means ± standard error, %) ([1]; 0.3 mg/tube, 48 hr): 39.0 ± 2.5 bc %; Mortality (Means ± standard error, %) ([1]; 0.4 mg/tube, 24 hr): 39.0 ± 2.5 b %; Mortality (Means ± standard error, %) ([1]; 0.4 mg/tube, 48 hr): 45.0 ± 2.5 b %; Mortality (Means ± standard error, %) ([1]; 0.5 mg/tube, 24 hr): 92.0 ± 2.6 a %; Mortality (Means ± standard error, %) ([1]; 0.5 mg/tube, 48 hr): 96.0 ± 2.3 a %; Mortality (Means ± standard error, %) [1, 5]: 94%; Mortality (Means ± standard error, %) ([1]; 1 mg/tube, 24 hr): 99.0 a^c %; Mortality (Means ± standard error, %) ([1]; 1 mg/tube, 48 hr): 100 a %; acaricidal activity / mortality against two species of house dust mites (house dust mites): 100%; acaricidal activity (house dust mites): no significant acaricidal activity
CCN(CC)C(=O)c1cccc(C)c1 [DEET, reference compound] |  |  |  |  |  |  |  |  |  |  |  |  |  |  |  |  |  |  |  |  | Mortality (Means ± standard error, %) (Dermatophagoides farinae; [3]): 96.8%; Mortality (Means ± standard error, %) [1, 3]: 16.8%

From patent publication US6855348B2, “Insecticidal composition derived from plants” (priority 2000, dated 2005)
